Assay results published in patent publication US20110280849A1, “TUMOR SUPPRESSION USING HUMAN PLACENTA-DERIVED INTERMEDIATE NATURAL KILLER CELLS AND IMMUNOMODULATORY COMPOUNDS” (Anthrogenesis Corporation, priority 2010, published 2011).

Experiments:
NK cells = assay: Flow cytometry of GZMB-positive NK cells after pomalidomide; type: cell-based, human
cultured PINK cells = assay: qRT-PCR gene expression in lenalidomide- or pomalidomide-treated cultured PINK cells
From the text: Quantitative real-time (qRT-PCR) analysis. Isolated RNA can then be used for cDNA synthesis using TAQMAN® Reverse Transcription Reagents (Applied Biosystems, Cat #N8080234) followed by real-time PCR analysis by the 7900HT Fast Real-Time PCR System using Human Immune Array (Applied Biosystems, Cat #4370573) and Human MicroRNA Array (Applied Biosystems, Cat #4384792).
The paired t-test is used to determine if fold changes are equal in lenalidomide-treated and -untreated samples. […] The paired t-test is used to determine if fold changes are equal in treated and untreated samples.

Nc1cccc2c1C(=O)N(C1CCC(=O)NC1=O)C2=O (racemic) [pomalidomide, 4-amino-2-[(3RS)-2,6-dioxopiperidin-3-yl)-1H-isoindole-1,3(2H)-dione]
increase in percentage of GZMB-positive NK cells (NK cells): 25% | increase in granzyme B (GZMB) gene expression (cultured PINK cells): 60%±1.7%
